Data on three compounds can be found in patent US20190327974A1, “SYNERGISTS FOR IMPROVED PESTICIDES” (priority 2017, published 2019).

The subject of assay [1] is panel of CBEs from various pests. The assay can be described thus: Panel of insect CBEs as a whole. It is filed as biochemical. The procedure: Assays were performed with 4-NPB as the substrate.
The subject of assay [2] is panel of 26 human serine or threonine proteases. The assay can be described thus: Protease selectivity panel, summary over the panel. In kind it is biochemical. As to conditions: 100 μM compound. The procedure:
(§1) Test compounds were dissolved in 100% DMSO to make 10 mM stock. Final compound concentration in assay is […]. Compounds were tested in duplicate wells at single concentration and the final concentration of DMSO in all assays was kept at 1%. Five reference compounds, AEBSF, Carfilzomib, Granzyme B Inhibitor II, Dec-RVKR-CMK, and Teneligliptin hydrobromide, were tested in an identical manner with 8 concentration points at 5× dilutions.

Assay [3] has the same test system. Nature of the assay: Protease selectivity panel as a whole (26 Ser/Thr proteases). In kind it is biochemical. As to conditions: 100 μM; the 3 proteases inhibited by more than 50%. The procedure:
as §1

Assay [4] concerns Lucilia cuprina larvae, field strain Tara resistant to diazinon. Nature of the assay: Lucilia cuprina larval bioassay (pupation rate), field strain. It is filed as in vivo. An excerpt: Diazinon resistance is typically associated with the Gly137Asp mutation/resistance allele. […] This is consistent with previous results showing that duplications of the chromosomal region containing αE7 have occurred, meaning that resistant strains now carry copies of both WT and Glyl37Asp LcαE7.
Two strains of L. cuprina were used: 1) a laboratory reference drug-susceptible strain, LS, derived from collections in the Australian Capital Territory over 40 years ago, with no history of exposure to insecticides; and 2) a field-collected strain, Tara, resistant to diazinon and diflubenzuron (Levot, G. W. & Sales, N. New high level resistance to diflubenzuron detected in the Australian sheep blowfly, Lucilia cuprina (Wiedemann) (Diptera: Calliphoridae). Gen. Appl. Entomol. 31, 43-46 (2002)). The LcαE7 gene was sequenced in each of the strains. Briefly, genomic DNA was prepared from 20 adult female flies from each strain using the DNeasy Blood and Tissue kit (Qiagen). PCR was performed with primers specific to the LcαE7 gene, and the product was cloned into a pGEM-T EASY vector (Promega). Eight clones of the susceptible strain and 10 clones of the resistant strain were sequenced using M13 forward and reverse primers.
The effect of compounds 2, 3, 5, 3.9 and 3.10 on the development of blowfly larvae in the presence of diazinon/malathion was assessed using a bioassay system in which larvae were allowed to develop from the first instar stage until pupation on cotton wool impregnated with diazinon/malathion over a range of concentrations, in the presence or absence of the compounds at constant concentrations (Kotze, A. C. et al. Histone deacetylase enzymes as drug targets for the control of the sheep blowfly, Lucilia cuprina. Int. J. Parasitol. Drugs Drug Resist. 5, 201-208 (2015)). Each experiment utilized 50 larvae at each diazinon/malathion concentration. Experiments were replicated three times for diazinon, and twice for malathion. The insecticidal effects were defined by measuring the pupation rate. […] Compounds were also without diazinon or malathion at 1 mg per assay.

Regarding `OB(O)c1ccc(OCc2ccccc2F)c(Cl)c1` [Compound 5, 3-Chloro-4(2′-fluorobenzyloxy) phenylboronic acid], the “inhibition spectrum across CBEs” value in assay [1] is “efficiently inhibiting six different CBEs”.

As for `OB(O)c1cc(Br)cc(N2CCCC2)c1` [Compound 3], in assay [2], the “inhibition across the panel of 26 human proteases (in words)” value is “only 3 of the 26 proteases were inhibited by more than 50%”. In assay [3], the “residual activity of the inhibited proteases” value is “at least 30%”.

For the compound `OB(O)c1cc(Br)cc(Oc2ccccc2)c1` [Compound 3.10, 3-Bromo-5-phenoxyfenylboronic acid], in assay [4] (field strain), the “reduction of diazinon EC50 compared to a diazinon only control” value is 12 fold. Moreover, the “sensitivity of field strain to diazinon compared to the laboratory strain treated with only diazinon” value in assay [4] (fold more sensitive) is 4 fold.
